How the values were obtained:
human thrombin [1] = target: human thrombin (Homo sapiens, UniProt P00734); test: Analysis of thrombin inhibition parameters (Lineweaver–Burk curves); assay type: biochemical; parameters: Thrombin, also known as an active plasma coagulation factor II; purchased Sigma-Aldrich Chemical Co. (St. Louis, MO, USA) T7009
Description: Absorbance was monitored every 12 s for 10 min in a 96-well microplate reader. The velocity of reaction was expressed as the increase in product (pNA) over time (∆ μmol/min) using a computer program Mikcroplate Manager® 8 and the extinction coefficient of p-nitroaniline. […] Then, the Lineweaver–Burk ([1934]) curves for thrombin in the presence and in the absence of polyphenol compounds were plotted. The Lineweaver–Burk equation, which is a transformation of the Michaelis–Menten model, looks as follows: 1/V=Km/Vmax·1/[S]+1/Vmax

human thrombin [2] = test: Thrombin-induced platelet aggregation (turbidimetric); assay type: cell-based; settings: compound 50 μM preincubated with thrombin
Description: Blood samples in 0.32 % sodium citrate from healthy volunteers without cardiovascular disorders were collected, untreated with antiplatelet drugs. […] Platelets were isolated from PRP using BSA–Sepharose 2B gel filtration method according to Walkowiak et al. ([2000]). […] In these preparations, to nine volumes of thrombin one volume of polyphenolic compounds was added (final thrombin concentration was 15.8 nM). All tested compounds were dissolved in 50 % DMSO to the initial concentration of 10 mM; other solutions of compounds were also prepared in 50 % DMSO (prepared in 50 mM TBS, pH 7.4). […] The platelet aggregation was measured by turbidimetric method (Saluk-Juszczak et al., [2007]) using dual-channel Chrono-log optical aggregometer (Chronolog, USA). […] Platelet suspensions were pre-warmed at 37 °C with stirring.

[3] = parameters: method as in Mozzicafreddo et al. ([2006]); settings: ref Mozzicafreddo et al. ([2006]); cited from earlier work

For O=c1c(O)c(-c2ccc(O)c(O)c2)oc2cc(O)cc(O)c12 [Quercetin, quercetin], the k cat (human thrombin [1]; compound at IC50 concentration, k cat = V max/E 0, control 29.1) was 27.8 s⁻¹, the Type of inhibition (human thrombin [1]; from Lineweaver–Burk curves) was “competitive inhibitors” and the “V max of chromogenic substrate hydrolysis by thrombin” value (human thrombin [1]; thrombin incubated with compound at IC50 concentration, control 30.7) was 29.4 10^−6 mol/min. For the same compound, the “K m of chromogenic substrate hydrolysis by thrombin” value (human thrombin [1]; thrombin incubated with compound at IC50 concentration, control 158.7) was 633.8 10^−6 M, the “Platelet aggregation, % of control” value (human thrombin [2]) was 4% and the “Concentration with anti-clotting effect (prolonged thrombin time)” value [3] was no less than 100 µM.

From article PMC3939009, “Thrombin inhibitory activity of some polyphenolic compounds” (Medicinal Chemistry Research, 2013)
